The record followed here is ChEMBL document CHEMBL4825726, “Structural insights in galectin-1-glycan recognition: Relevance of the glycosidic linkage and the N-acetylation pattern of sugar moieties” (Bioorg Med Chem, 2021).

For orientation: pIC50 means the negative decadic logarithm of the IC50, by convention in mol/L. What is called pKd is −log10 of the Kd, conventionally taken in molar units.

pIC50, pKd: −log10 of the molar value.

The target in experiment [1] is T1, Galectin-1 (Homo sapiens, UniProt P09382). The experiment is described as follows: Binding affinity to human Gal-1 assessed as change in enthalpy by isothermal titration calorimetry. On the technique in general: Isothermal titration calorimetry measures the heat released or taken up as one component is titrated into another.
T1 sequence (P09382 whole entry): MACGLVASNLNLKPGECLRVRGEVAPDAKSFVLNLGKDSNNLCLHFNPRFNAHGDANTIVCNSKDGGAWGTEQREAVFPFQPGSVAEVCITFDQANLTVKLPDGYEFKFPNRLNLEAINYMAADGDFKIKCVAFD
Experiment [2] has as its target T1, Galectin-1. The experiment is described as follows: Binding affinity to human Gal-1 assessed as change in entropy by isothermal titration calorimetry.
For experiment [3], the target named is T1, Galectin-1. The experiment is described as follows: Binding affinity to human Gal-1 assessed as inhibition of Gal-1 binding to immobilized asialofetuin pretreated with Gal-1 for 2 hrs followed by incubation with asialofetuin for 2 hrs by competitive solid phase assay. Conditions: for pIC50: read-out: IC50; call rule not given here.
Experiment [4] has as its target T1, Galectin-1. The experiment is described as follows: Binding affinity to human Gal-1 assessed as inhibition of Gal-1 binding to immobilized asialofetuin pretreated with Gal-1 for 2 hrs followed by incubation with asialofetuin for 2 hrs by competitive solid phase assay relative to lactose. As to conditions: time 4.0 hrs.
Experiment [5] concerns the target T1, Galectin-1. In words: Binding affinity to human Gal-1 assessed as dissociation constant by isothermal titration calorimetry.
Experiment [6] has as its target T1, Galectin-1. In words: Binding affinity to human Gal-1 assessed as Gibbs free energy change by isothermal titration calorimetry.

For `OC[C@H]1O[C@@H](O[C@H]2[C@H](O)[C@@H](O)C(O)O[C@@H]2CO)[C@H](O)[C@@H](O)[C@H]1O` (stereo partly specified), the deltaH at Galectin-1 [1] was -10.8 kcal/mol. At Galectin-1 [2], the -TdeltaS stood at 5.71 kcal/mol and the deltaS is -80.2 J/mol.K.

`CC(=O)N[C@H]1C(O)O[C@H](CO)[C@@H](O)[C@@H]1O[C@@H]1O[C@H](CO)[C@H](O)[C@H](O)[C@H]1O` (stereo partly specified): the pIC50 at Galectin-1 [3] is 2.69. On Galectin-1 [4], the Ratio was 2.37. For the same compound, the pKd on Galectin-1 [5] was 3.79. For the same compound, the deltaH at Galectin-1 [1] is -11.4 kcal/mol. For the same compound, on Galectin-1 [2], the -TdeltaS came out at 6.21 kcal/mol and the deltaS was -87.2 J/mol.K. Further, the deltaG at Galectin-1 [6] is -5.19 kcal/mol.

In the case of `CC(=O)N[C@H]1C(O)O[C@H](CO[C@@H]2O[C@H](CO)[C@H](O)[C@H](O)[C@H]2O)[C@@H](O)[C@@H]1O` (stereo partly specified), the pIC50 on Galectin-1 [3] is 1.89. Besides, the Ratio at Galectin-1 [4] worked out at 0.36. Also, the pKd on Galectin-1 [5] was 3.30. Besides, the deltaH on Galectin-1 [1] is -4.28 kcal/mol. On Galectin-1 [2], the -TdeltaS was -0.215 kcal/mol and the deltaS was found to be 3 J/mol.K. Also, the deltaG on Galectin-1 [6] is -4.49 kcal/mol.

Take `CC(=O)N[C@H]1C(O)O[C@H](CO)[C@@H](O[C@@H]2O[C@H](CO)[C@H](O)[C@H](O)[C@H]2O)[C@@H]1O` (stereo partly specified): the pIC50 on Galectin-1 [3] was 2.71. On Galectin-1 [4], the Ratio worked out at 2.37. Also, the pKd at Galectin-1 [5] is 4.02. Moreover, the deltaH on Galectin-1 [1] is -12 kcal/mol. For the same compound, at Galectin-1 [2], the -TdeltaS amounted to 6.55 kcal/mol and the deltaS was -91.9 J/mol.K. Further, the deltaG on Galectin-1 [6] is -5.47 kcal/mol.

Consider `CC(=O)N[C@H]1[C@H](O[C@H]2[C@H](O)[C@@H](NC(C)=O)C(O)O[C@@H]2CO)O[C@H](CO[C@@H]2O[C@H](CO)[C@H](O)[C@H](O)[C@H]2O)[C@@H](O)[C@@H]1O` (stereo partly specified), for which, on Galectin-1 [3], the pIC50 is 1.67. The Ratio on Galectin-1 [4] was 0.22. Besides, at Galectin-1 [5], the pKd was 3.11. On Galectin-1 [1], the deltaH is -3.66 kcal/mol. At Galectin-1 [2], the -TdeltaS was -0.598 kcal/mol and the deltaS was 8.4 J/mol.K. In addition, the deltaG on Galectin-1 [6] was -4.25 kcal/mol.

For `OC[C@H]1O[C@@H](OC[C@H]2OC(O)[C@H](O)[C@@H](O)[C@@H]2O)[C@H](O)[C@@H](O)[C@H]1O` (stereo partly specified), the IC50 result at Galectin-1 [3] is on record as “Not Active”. Further, the pKd on Galectin-1 [5] was 2.88. Further, on Galectin-1 [1], the deltaH was -1.79 kcal/mol. Besides, the -TdeltaS on Galectin-1 [2] is -2.13 kcal/mol. Also, the deltaG at Galectin-1 [6] was -3.92 kcal/mol.
